Our source for the Km values is paper doi:10.1101/2024.11.06.622220v2 (biorxiv, 2024).

In assay [1] the test system is JaPTAL. Briefly: PAL activity kinetics, Michaelis-Menten. It counts as biochemical, Joinvillea ascendens. The following applies: only the range for graminid PTALs is in the text.
The test system of assay [2] is JaPTAL. Conditions: read-out: apparent Km; also printed as 11.0 μM.

Where two headings read alike, the source gives them in different places.

With `N[C@@H](Cc1ccccc1)C(=O)O` [Phe], the Km in assay [1] was found to be 65.6 ± 1.4 µM.
Consider `N[C@@H](Cc1ccc(O)cc1)C(=O)O` [Tyr], for which, in assay [2], the Km worked out at 10.9 µM.
